Measured values: patent US11191840B2, “Compositions and methods relating to salts of specialized pro-resolving mediators” (Thetis Pharmaceuticals LLC, priority 2017, dated 2021)
Where a name gives a salt, the structure may show the parent alone. Read-outs that look alike come from different tables or passages of the source. Each block holds one compound with its values, some of them ahead of it.

What was measured:
[1] = system: two-cycle DSS colitis model; assay: Two-cycle DSS colitis model, concomitant RvE1-Mg-di-lysinate and 5-ASA; format: in vivo, mouse; details: once-daily, RvE1-Mg-Lys 1.5 ug/d, 5-ASA 625 ug/d, alone or combined; for Colon Length / Normalized Spleen Weight / Total Histopath Score: at sacrifice; for Disease Activity Index: terminal (Day 27)
Method: (§1) In the study described in Example 17, a sub-chronic model was used to induce colitis in 8-week old C57B16/J mice by two cycles of DSS separated by a 10-day recovery period. Once-daily RvE1-Mg-di-lysinate treatment (15 ug/day) was initiated on Day 20, after DSS-induced colitis was established, and continued for 7 days via oral gavage, with mice sacrificed at the end of Day 27. This sub-chronic, 2-cycle DSS protocol was used to induce inflammation with an immunological profile that better models human IBD than a single cycle of DSS. Oh S Y et al. Comparison of experimental mouse models of inflammatory bowel disease. Int J Mol Med. 2014; 33(2):333-40. This experimental system also provides a representative model for treating patients with active disease where the therapeutic objective is induction of remission. This is important in human IBD because most patients have recurring disease flares. In addition, this study compared RvE1-Mg-di-lysinate to 5-aminosalicylate (5-ASA), which is used as standard-of-care first-line therapy for induction and maintenance of remission in ulcerative colitis and also for certain phenotypes of Crohn's Disease.
(§2) Disease activity was assessed daily using the same Disease Activity Index (DAI) that was used in Example 16. Following sacrifice, colons were excised, flushed with ice-cold PBS, their lengths were measured. Subsequently, H&E-stained colon tissue sections from each animal were also scored using an established scoring system of histopathological disease activity. See Dieleman L A, Palmen M J, Akol H, et al. Chronic experimental colitis induced by dextran sulphate sodium (DSS) is characterized by Th1 and Th2 cytokines. Clin Exp Immunol. 1998; 114(3):385-91.
In this study, we again used the two-cycle DSS colitis model described above, but with once-daily concomitant therapy of RvE1-Mg-di-lysinate (1.5 ug/day) and 5-ASA (625 ug/day). This co-therapy model was used because many patients that would be candidates for RvE1-Mg-di-lysinate treatment will likely continue taking 5-ASA, as this is common clinical practice even when patient are not well controlled on 5-ASA monotherapy.

[2] = Chemical stability against degradation, HPLC, solid in open test tubes at room temperature; format: physicochemical; details: open test tube, room temperature 68-72 F, relative humidity 20-40%
Method: The stability of selected SPMs and their ionic derivatives based on Formulas I and IV was evaluated. The parent SPM and its solid ionic derivative were place in open test tubes and maintained at room temperature between 68-72 F and relative humidity between 20-40% for 6 or 8 weeks. […] Briefly, HPLC analysis was performed on a PFP column (Poroshell 120, PFP, 4.6×150 mm, […], Agilent), mounted on a Gilson HPLC system equipped with an ELS detector. The mobile phase consisted of a gradient between solution A, water, and solution B, acetonitrile, both containing 0.1% trifluoroacetic acid. The gradient program was 30-80% with respect to solution B. The flow rate was 0.5 mL/min. The appearance of new HPLC peaks as compared to the baseline HPLC tracing at the initial time point is indicative of decomposition products and the lack of stability. The absence of such new HPLC peaks the subsequent time points is indicative of stability.

[3] = system: dextran sulfate sodium (DSS) mouse model of colitis; assay: Dextran sulfate sodium (DSS) mouse model of colitis, acute, 7 days DSS; format: in vivo; details: RvE1-Mg-di-lysinate 15 ug/day or equimolar RvE1; for Colon Length / Normalized Spleen Weight: at sacrifice after 7 days DSS, once-daily oral gavage; for Disease Activity Index: study day 7, 2% DSS in drinking water 7 days, once-daily oral gavage from day 0
Method: A representative compound of Formula IV, RvE1-Mg-di-lysinate, was tested for efficacy in the dextran sulfate sodium (DSS) mouse model of colitis. In this model system, DSS exposure disrupts intestinal barrier function, stimulating local inflammation and inducing a colitis phenotype that mimics the clinical and histopathological features of IBD. See e.g., Laroui H et al. Dextran sodium sulfate (DSS) induces colitis in mice by forming nano-lipocomplexes with medium-chain-length fatty acids in the colon. PLoS ONE. 2012; 7 (3):e32084.
In the present study, 8-week old male C57Bl/6J mice were randomized by weight to three experimental groups and administered 2% DSS (w/v) in drinking water for 7 days. Beginning on study day 0, animals were administered either RvE-Mg-di-lysinate (RvE-Mg-Lys), an equimolar dose of RvE1, or vehicle via once-daily oral gavage. Disease activity was assessed daily using an established Disease Activity Index (DAI). See e.g., Morin C, Blier P U, Fortin S. MAG-EPA reduces severity of DSS-induced colitis in rats. Am J Physiol Gastrointest Liver Physiol. 2016; 310 (10):G808-21. All animals were sacrificed after 7 days of DSS exposure and colons and spleens were harvested. Gross morphological markers of disease activity, including colon length and normalized spleen weight (mg per g body weight) were assessed.
The model system described in Example 16 represents an acute model of human IBD wherein once daily RvE1-Mg-di-lysinate treatment at a dose of 15 ug/day was used in a prophylactic mode to mitigate the onset of intestinal and systemic inflammation induced by administration of DSS. This is relevant to patients in need of maintenance therapy to prevent the recurrence of active disease.

DSS-induced colitis = assay: Sub-chronic two-cycle DSS colitis model, treatment from Day 20; format: in vivo, mouse; details: for Colon Length / Disease Activity Index / Normalized Spleen Weight: Table 7, two cycles of DSS, once-daily oral gavage Day 20-27, 15 ug/day; for Reduction in DAI relative to Disease Control: 15 ug/day oral from Day 20
Method: as §1, §2

[4] = Single oral dose pharmacokinetics: RvE1 exposure in blood plasma, small intestine tissue and colon tissue; format: in vivo, mouse; details: for Timing of RvE1 Cmax: oral administration; for Cmax / Tmax / AUC(0-t): male, C57BL6/J, mouse, single oral dose 10 mg/kg RvE1-Mg-di-lysinate; for AUC(0-t): read-out: AUC0-8 of RvE1
Method: To establish the oral pharmacokinetics (PK) of RvE1-Mg-di-lysinate, a study was conducted to investigate RvE1 exposure in blood plasma, small intestine tissue, and colon tissue following a single oral dose of RvE1-Mg-di-lysinate (10 mg/kg) in 8-week old male C57BL6/J mice at various time points up to 8 hours post-dose. RvE1 levels were quantified in all tissue samples by HPLC-MS/MS. Pharmacokinetic curves for all tissue compartments are shown in FIG. 5 and a summary of pharmacokinetic metrics is shown in Table 9.

[5] = system: two-cycle DSS colitis model; assay: Two-cycle DSS colitis model, intracolonic versus oral administration; format: in vivo, mouse; details: 15 ug/d, Day 20-27
From the text: To further test the biological effects on disease activity of luminal absorption of RvE1 administered orally in the form of RvE1-Mg-di-lysinate, we compared direct intracolonic administration (similar to an enema) with oral administration. Whereas we had previously established that oral administration of RvE1-Mg-di-lysinate results in systemic and local colonic exposure to RvE1, intracolonic administration results in predominantly local exposure. We again used the two-cycle DSS colitis model described above, with treatment initiated on Day 20 and continued for 7 days, with mice sacrificed at the end of Day 27. To facilitate intracolonic drug delivery, mice were anesthetized via exposure to 2-4% isoflurane gas. Intracolonic administration of RvE1-Mg-di-lysinate or vehicle was performed, with all animals inverted for 5 minutes following dose administration. Intracolonic administration of RvE1-Mg-di-lysinate was associated with a significant reduction in DAI (P<0.01), colon length (P<0.05), spleen weight (P<0.05) and histopathological disease activity (P<0.05).

[6] = Pharmacokinetic analysis of blood and colon tissue after intracolonic administration; format: in vivo; details: mouse, 15 ug/day; for Tmax: read-out: RvE1 Tmax (converted)
From the text: Pharmacokinetic analysis of blood and colon tissue samples were collected in the course of the intracolonic efficacy study and these confirmed that intracolonic administration of RvE1-Mg-di-lysinate is associated with predominantly local RvE1 exposure and minimal uptake into circulation.

[7] = at sacrifice Day 27, 15 ug/day oral, P<0.05
[8] = small intestine tissue, Small Intestine

Compound: Nc1ccc(O)c(C(=O)O)c1 [Compound 5-ASA, 5-aminosalicylate, reference compound]
Colon Length [1]: 78.7 ± 6.7 mm
Normalized Spleen Weight [1]: 4.1 ± 1.3 mg/g BW
Total Histopath Score [1]: 16 ± 3.8
Disease Activity Index [1]: 3.3 ± 0.8

Compound: CC[C@@H](O)/C=C/C=C\C[C@@H](O)/C=C/C=C/C=C\[C@@H](O)CCCC(=O)O [RvE1 Ca di-lysinate, bis(RvE1) calcium L-lysinate salt]
Degradation products by HPLC (chemical stability) ([2]; 6 weeks): No additional peaks corresponding to degradation products were observed

Continued, in another order:

Degradation products by HPLC (chemical stability) ([2]; 8 weeks): without degradation products
Compound: CC[C@@H](O)/C=C/C=C\C[C@@H](O)/C=C/C=C/C=C\[C@@H](O)CCCC(=O)O [RvE1 lys lys, RvE1 (L,L)-lysyllysine salt]

Degradation products by HPLC (chemical stability) ([2]; 8 weeks): extensively degraded
Compound: CC[C@@H](O)/C=C/C=C\C[C@@H](O)/C=C/C=C/C=C\[C@@H](O)CCCC(=O)O [RvE1, (5S,6Z,8E,10E,12R,14Z,16E,18R)-5,12,18-trihydroxyicosa-6,8,10,14,16-pentaenoic acid, reference compound]
Colon Length [3]: 75.2 ± 7.6 mm
Normalized Spleen Weight [3]: 3.9 ± 0.7 mg/g BW
Disease Activity Index [3]: 5.6 ± 1.1
Colon Length (DSS-induced colitis): 75.2 ± 7.6 mm
Disease Activity Index (DSS-induced colitis): 5.6 ± 1.1
Normalized Spleen Weight (DSS-induced colitis): 3.9 ± 0.7 mg/g BW

Degradation products by HPLC (chemical stability) ([2]; 8 weeks, listed as RvE1 Mg di-lysinate): did not exhibit any degradation products
Share of total RvE1 detected in colon tissue contributed by the increase at the time of blood plasma Cmax ([4]; colon tissue, 15 minutes after oral dose): less than 2%
Timing of RvE1 Cmax ([4]; colon): 4 h
Cmax ([4]; colon tissue, Colon): 19.8 ng/mL
Tmax ([4]; colon tissue, Colon): 240 min
AUC(0-t) ([4]; colon tissue, Colon): 72.9 ng·h/mL
Cmax ([4]; plasma, Blood): 471 ng/mL
Tmax ([4]; plasma, Blood): 15 min
AUC(0-t) ([4]; plasma, Blood): 128 ng·h/mL
Cmax [4, 8]: 346 ng/mL
Tmax [4, 8]: 120 min
AUC(0-t) [4, 8]: 533 ng·h/mL
Timing of RvE1 Cmax ([4]; small intestine): 2 h
Cmax ([6]; blood, read-out: Blood Cmax of RvE1): 0.48 ng/mL
Tmax ([6]; blood): 15 min
Cmax ([6]; colon tissue, read-out: Colon Cmax of RvE1): 2800 ng/g
Tmax ([6]; colon): 15 min
Compound: CC[C@@H](O)/C=C/C=C\C[C@@H](O)/C=C/C=C/C=C\[C@@H](O)CCCC(=O)O [RvE1-Mg-Lys, bis(RvE1) magnesium L-lysinate salt]
Colon Length [3]: 77.1 ± 7.8 mm
Normalized Spleen Weight [3]: 3.6 ± 0.9 mg/g BW
Disease Activity Index [3]: 4.8 ± 1.3
Reduction in DAI relative to Disease Control (DSS-induced colitis; Day 21, P<0.01): 24%
Reduction in DAI relative to Disease Control (DSS-induced colitis; Day 23, P<0.05): 18%
Colon Length (DSS-induced colitis): 77.1 ± 7.8 mm
Disease Activity Index (DSS-induced colitis): 4.8 ± 1.3
Normalized Spleen Weight (DSS-induced colitis): 3.6 ± 0.9 mg/g BW
Histopathologic disease activity vs Disease Control (in words) (DSS-induced colitis; at sacrifice Day 27, 15 ug/day oral): non-significant reduction
Colon length vs Disease Control (in words) (DSS-induced colitis; [7]): statistically significant increase
Normalized spleen weight vs Disease Control (in words) (DSS-induced colitis; [7]): statistically significant reduction
DAI relative to vehicle control (in words) (DSS-induced colitis; study day 27, 15 ug/day oral Day 20-27): statistically significant reduction
Colon Length [1]: 77.3 ± 3 mm
Normalized Spleen Weight [1]: 6.6 ± 0.5 mg/g BW
Total Histopath Score [1]: 17.6 ± 2.7
Disease Activity Index [1]: 3.7 ± 1.6
Colon Length ([5]; Intracolonic): 83.1 ± 5.4 mm
Disease Activity Index ([5]; Intracolonic): 2.6 ± 1.9
Normalized Spleen Weight ([5]; Intracolonic): 4.3 ± 0.9 mg/g BW
Total Histopath Score ([5]; Intracolonic): 15 ± 2.7
Colon Length ([5]; Oral): 82.7 ± 5.6 mm
Disease Activity Index ([5]; Oral): 2.6 ± 1.8
Normalized Spleen Weight ([5]; Oral): 4.4 ± 1.4 mg/g BW
Total Histopath Score ([5]; Oral): 15.9 ± 6.0
